One experiment relates to B16F10 cells. The experiment in a line: Proliferation assay B16F10. The class given is cell-based, mouse. The following applies: Mus musculus, B16-F10, 96 h; 4 days, crystal violet; read-out: Inhibition of B16F10 cell proliferation IC50. As for the experimental part: Cultivated tumour cells (HeLa, human cervical tumour cells, ATCC CCL-2; NCI-H460, human non-small cell lung carcinoma cells, ATCC HTB-177; A2780, human ovarian carcinoma cells, ECACC #93112519; DU 145, hormone-independent human prostate carcinoma cells, ATCC HTB-81; HeLa-MaTu-ADR, multidrug-resistant human cervical carcinoma cells, EPO-GmbH Berlin; Caco-2, human colorectal carcinoma cells, ATCC HTB-37; B16F10, mouse melanoma cells, ATCC CRL-6475) were plated at a density of 5,000 cells/well (DU145, HeLa-MaTu-ADR), 3,000 cells/well (NCI-H460, HeLa), 2,500 cells/well (A2780), 1,500 cells/well (Caco-2), or 1,000 cells/well (B16F10) in a 96-well multititer plate in 200 μL of their respective growth medium supplemented 10% fetal calf serum. After 24 hours, the cells of one plate (zero-point plate) were stained with crystal violet (see below), while the medium of the other plates was replaced by fresh culture medium (200 μl), to which the test substances were added in various concentrations (0 μM, as well as in the range of 0.001-10 μM). The cells were incubated for 4 days in the presence of test substances. Cell proliferation was determined by staining the cells with crystal violet: the cells were fixed by adding 20 μl/measuring point of an 11% glutaric aldehyde solution for 15 minutes at room temperature. After three washing cycles of the fixed cells with water, the plates were dried at room temperature. The cells were stained by adding 100 μl/measuring point of a 0.1% crystal violet solution (pH 3.0). After three washing cycles of the stained cells with water, the plates were dried at room temperature. The dye was dissolved by adding 100 μl/measuring point of a 10% acetic acid solution. The extinction was determined by photometry at a wavelength of 595 nm. The change of cell number, in percent, was calculated by normalization of the measured values to the extinction values of the zero-point plate (=0%) and the extinction of the untreated (0 μm) cells (=100%). The IC50 values (inhibitory concentration at 50% of maximal effect) were determined by means of a 4 parameter fit. Non-adherent MOLM-13 human acute myeloid leukemia cells (DSMZ ACC 554) were seeded at a density of 5,000 cells/well in a 96-well multititer plate in 100 μL of growth medium supplemented 10% fetal calf serum. After 24 hours, cell viability of one plate (zero-point plate) was determined with the Cell Titre-Glo Luminescent Cell Viability Assay (Promega), while 50 μL of test compound containing medium was added to the wells of the other plates (final concentrations in the range of 0.001-1 μM and DMSO controls). Cell viability was assessed after 72-hour exposure with the Cell Titre-Glo Luminescent Cell Viability Assay (Promega). IC50 values (inhibitory concentration at 50% of maximal effect) were determined by means of a 4 parameter fit on measurement data which were normalized to vehicle (DMSO) treated cells (=100%) and measurement readings taken immediately before compound exposure (=0%).

Experiment [1] addresses T1, human PTEFb (CDK9/Cyclin T1) (Homo sapiens, UniProt P50750).
T1 construct: purchased ProQinase, Freiburg, Germany
The experiment in a line: Surface plasmon resonance PTEFb. The following applies: SPR; for koff: 25° C., below 5E-5 s^-1 not resolvable, read-out: Dissociation rate constant koff; for Target resident time: 1/koff. The experiment is classed as binding. The source says:
8. Surface Plasmon Resonance PTEFb
The term “surface plasmon resonance”, as used herein, refers to an optical phenomenon that allows for the analysis of the reversible associations of biological molecules in real time within a biosensor matrix, for example using the Biacore® system (GE Healthcare Biosciences, Uppsala, Sweden). Biacore® uses the optical properties of surface plasmon resonance (SPR) to detect alterations in the refractive index of a buffer, which changes as molecules in solution interact with the target immobilized on the surface. In brief, proteins are covalently bound to the dextran matrix at a known concentration and a ligand for the protein is injected through the dextran matrix. Near infrared light, directed onto the opposite side of the sensor chip surface is reflected and also induces an evanescent wave in the gold film, which in turn, causes an intensity dip in the reflected light at a particular angle known as the resonance angle. If the refractive index of the sensor chip surface is altered (e.g. by compound binding to the bound protein) a shift occurs in the resonance angle. This angle shift can be measured.
The term “KD”, as used herein, is intended to refer to the equilibrium dissociation constant of a particular compound/target protein complex.
The term “koff”, as used herein, is intended to refer to the off-rate, i.e. the dissociation rate constant of a particular compound/target protein complex.
The term “target residence time”, as used herein, is intended to refer to the inverse of the rate of dissociation rate constant (1/koff) of a particular compound/target protein complex.
The ability of the compounds according to the invention to bind human PTEFb may be determined using surface plasmon resonance (SPR). KD values and koff values may be measured using a Biacore® T200 instrument (GE Healthcare, Uppsala, Sweden).
For SPR measurements, recombinant human PTEFb (CDK9/Cyclin T1 recombinant human active protein kinase purchased from ProQinase, Freiburg, Germany) is immobilized using standard amine coupling (Johnsson B et al, Anal Biochem. 1991 Nov. 1; 198(2):268-77). Briefly, carboxymethylated dextran biosensor chips (CM7, GE Healthcare) are activated with N-ethyl-N′-(3-dimethylaminopropyl)-carbodiimide hydrochloride (EDC) and N-hydroxysuccinimide (NHS) according to the supplier's instructions. Human PTEFb is diluted in 1×HBS-EP+(GE Healthcare) into 30 μg/ml and injected on the activated chip surface. Subsequently, a 1:1 solution of 1 M ethanolamine-HCl (GE Healthcare) and 1×HBS-EP is injected to block unreacted groups, resulting in approximately 4000 response units (RU) of immobilized protein. A reference surface is generated by treatment with NHS-EDC and ethanolamine-HCl. Compounds are dissolved in 100% dimethylsulfoxide (DMSO, Sigma-Aldrich, Germany) to a concentration of 10 mM and subsequently diluted in running buffer (1×HBS-EP+pH 7.4 [generated from HBS-EP+Buffer 10× (GE Healthcare): 0.1 M HEPES, 1.5 M NaCl, 30 mM EDTA and 0.5% v/v Surfactant P20], 1% v/v DMSO). For kinetic measurements, four-fold serial dilutions of compound (0.39 nM to 100 nM) are injected over immobilized protein. Binding kinetics is measured at 25° C. with a flow rate of 50 μl/min in running buffer. Compound concentrations are injected for 60 s followed by a dissociation time of 1800 s. The resulting sensorgrams are double-referenced against the reference surface as well as against blank injections.
The double-referenced sensorgrams are fit to a simple reversible Langmuir 1:1 reaction mechanism as implemented in the Biacore® T200 evaluation software 2.0 (GE Healthcare). In cases were full compound dissociation has not occurred at the end of the dissociation phase, the Rmax parameter (response at saturation) is fit as local variable. In all other cases, Rmax is fit as global variable.
(In general: SPR reads the build-up and loss of mass on a sensor chip optically.)

Consider 12 molecules from patent US9963464B2, “Macrocyclic compounds” (Bayer Pharma Aktiengesellschaft, priority 2014, dated 2018).

Bounds are passed on as bounds.

T1 sequence (P50750 whole entry): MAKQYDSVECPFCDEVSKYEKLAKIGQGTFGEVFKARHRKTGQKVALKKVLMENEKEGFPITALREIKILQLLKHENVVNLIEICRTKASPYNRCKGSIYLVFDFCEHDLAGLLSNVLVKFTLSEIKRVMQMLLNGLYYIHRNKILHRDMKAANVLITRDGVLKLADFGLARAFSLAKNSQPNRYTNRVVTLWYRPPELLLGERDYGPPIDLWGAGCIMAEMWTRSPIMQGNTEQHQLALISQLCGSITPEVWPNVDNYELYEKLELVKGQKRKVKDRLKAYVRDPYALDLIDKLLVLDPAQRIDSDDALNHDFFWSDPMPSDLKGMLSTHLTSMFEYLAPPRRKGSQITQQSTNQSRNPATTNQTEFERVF
T1 sequence (O60563 whole entry partner): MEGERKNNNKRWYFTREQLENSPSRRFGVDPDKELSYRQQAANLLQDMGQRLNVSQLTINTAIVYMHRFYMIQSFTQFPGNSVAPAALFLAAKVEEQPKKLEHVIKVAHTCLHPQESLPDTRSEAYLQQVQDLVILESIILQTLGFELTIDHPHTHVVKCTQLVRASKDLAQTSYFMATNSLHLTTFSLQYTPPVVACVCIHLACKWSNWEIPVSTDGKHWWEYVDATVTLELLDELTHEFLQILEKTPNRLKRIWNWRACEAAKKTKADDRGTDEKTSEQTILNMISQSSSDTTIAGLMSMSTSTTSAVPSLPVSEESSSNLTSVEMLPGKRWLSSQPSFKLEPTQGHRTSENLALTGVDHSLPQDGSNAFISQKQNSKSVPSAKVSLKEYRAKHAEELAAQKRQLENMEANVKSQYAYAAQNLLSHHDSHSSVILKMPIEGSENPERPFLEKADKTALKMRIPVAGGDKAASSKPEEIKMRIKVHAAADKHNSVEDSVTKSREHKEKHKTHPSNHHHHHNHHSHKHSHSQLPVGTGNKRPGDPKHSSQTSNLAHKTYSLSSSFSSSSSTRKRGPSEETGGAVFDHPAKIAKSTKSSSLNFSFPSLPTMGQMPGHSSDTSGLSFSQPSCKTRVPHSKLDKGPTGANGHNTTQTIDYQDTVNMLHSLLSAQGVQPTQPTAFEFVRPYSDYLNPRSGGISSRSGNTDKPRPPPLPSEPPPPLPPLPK

Consider `CS(=N)(=O)Cc1cc2cc(c1)OCCCCOc1cc(F)ccc1-c1nc(ncc1F)N2` (racemic) [Example 1, (rac)-16,20-Difluoro-9-[(S-methylsulfonimidoyl)methyl]-2,3,4,5-tetrahydro-12H-13,17-(azeno)-11,7-(metheno)-1,6,12,14-benzodioxadiazacyclononadecine], for which the IC50 with B16F10 cells is 14 nM. In experiment [1], the koff (usually a measure of how fast the partners let go of each other) is below 5e-05 s⁻¹ and the Target resident time was above 333 min.

As to `C[S+]([O-])Cc1cc2nc(c1)OCCCOc1cc(F)ccc1-c1cc(ncc1F)N2` (racemic) [Example 4, (rac)-15,19-Difluoro-8-[(methylsulfinyl)methyl]-3,4-dihydro-2H,11H-10,6-(azeno)-12,16-(metheno)-1,5,11,13-benzodioxadiazacyclooctadecine], the IC50 in the experiment with B16F10 cells was found to be 14 nM. Moreover, in experiment [1], the koff is below 5e-05 s⁻¹ and the Target resident time was above 333 min.

Turning to `CS(=N)(=O)Cc1cc2nc(c1)OCCCOc1cc(F)ccc1-c1cc(ncc1F)N2` (racemic) [Example 5, (rac)-15,19-Difluoro-8-[(S-methylsulfonimidoyl)methyl]-3,4-dihydro-2H,11H-10,6-(azeno)-12,16-(metheno)-1,5,11,13-benzodioxadiazacyclooctadecine], in the experiment on B16F10 cells, the IC50 amounted to 4 nM. In addition, in experiment [1], the off-rate (koff) came to 9.3e-05 s⁻¹ and the Target resident time is listed as 179.2 min.

For `C[S+]([O-])Cc1cc2nc(c1)OCCOc1cc(F)ccc1-c1cc(ncc1F)N2` (racemic) [Example 10, (rac)-14,18-difluoro-7-[(methylsulfinyl)methyl]-2,3-dihydro-10H-9,5-(azeno)-11,15-(metheno)-1,4,10,12-benzodioxadiazacycloheptadecine], in the experiment on B16F10 cells, the IC50 came out at 410 nM. In addition, in experiment [1], the off-rate (koff) came out at 0.00245 s⁻¹ and the Target resident time is recorded as 6.8 min.

As to `CS(=N)(=O)Cc1cc2nc(c1)OCCOc1cc(F)ccc1-c1cc(ncc1F)N2` (racemic) [Example 11, (rac)-14,18-difluoro-7-[(S-methylsulfonimidoyl)methyl]-2,3-dihydro-10H-9,5-(azeno)-11,15-(metheno)-1,4,10,12-benzodioxadiazacycloheptadecine], the IC50 with B16F10 cells came to 200 nM. In addition, in experiment [1], the dissociation rate constant (koff) is 0.0029 s⁻¹ and the Target resident time is recorded as 5.7 min.

On to `C[S+]([O-])Cc1cc2nc(c1)OCCCCOc1cc(F)ccc1-c1cc(ncc1F)N2` (racemic) [Example 13, (rac)-16,20-difluoro-9-[(methylsulfinyl)methyl]-2,3,4,5-tetrahydro-12H-11,7-(azeno)-13,17-(metheno)-1,6,12,14-benzodioxadiazacyclononadecine], for which the IC50 in the experiment with B16F10 cells is 30 nM. Also, in experiment [1], the dissociation rate constant (koff) is below 5e-05 s⁻¹ and the Target resident time was above 333 min.

With `CS(=N)(=O)Cc1cc2nc(c1)OCCCCOc1cc(F)ccc1-c1cc(ncc1F)N2` (racemic) [Example 14, (rac)-16,20-difluoro-9-[(S-methylsulfonimidoyl)methyl]-2,3,4,5-tetrahydro-12H-11,7-(azeno)-13,17-(metheno)-1,6,12,14-benzodioxadiazacyclononadecine], in the experiment with B16F10 cells, the IC50 stood at 22 nM. Moreover, in experiment [1], the dissociation rate constant (koff) was below 5e-05 s⁻¹ and the Target resident time is on record as above 333 min.

Consider `CS(=N)(=O)Cc1cc2cc(c1)OCCCOc1cc(F)ccc1-c1nc(ncc1F)N2` (racemic) [Example 15, (rac)-15,19-difluoro-8-[(S-methylsulfonimidoyl)methyl]-3,4-dihydro-2H,11H-12,16-(azeno)-10,6-(metheno)-1,5,11,13-benzodioxadiazacyclooctadecine], for which the IC50 with B16F10 cells was determined as 23 nM. Besides, in experiment [1], the koff is below 5e-05 s⁻¹ and the Target resident time is reported as above 333 min.

For `CS(=O)(Cc1cc2cc(c1)OCCCOc1cc(F)ccc1-c1nc(ncc1F)N2)=NC(=O)C(F)(F)F` (racemic) [Example 16, (rac)-N-[{[15,19-difluoro-3,4-dihydro-2H,11H-12,16-(azeno)-10,6-(metheno)-1,5,11,13-benzodioxadiazacyclooctadecin-8-yl]methyl}(methyl)oxido-λ^6-sulfanylidene]-2,2,2-trifluoroacetamide], the IC50 with B16F10 cells worked out at 18 nM. Moreover, in experiment [1], the off-rate constant (koff) is below 5e-05 s⁻¹ and the Target resident time is above 333 min.

As for `CS(=N)(=O)Cc1cc2nc(c1)OCCCOc1cc(F)ccc1-c1cc(ncc1F)N2` (single isomer, unassigned; enantiomer 1) [Example 6, 15,19-Difluoro-8-[(S-methylsulfonimidoyl)methyl]-3,4-dihydro-2H,11H-10,6-(azeno)-12,16-(metheno)-1,5,11,13-benzodioxadiazacyclooctadecine; Enantiomer 1], the IC50 in the experiment on B16F10 cells was 7 nM. In experiment [1], the koff is below 5e-05 s⁻¹ and the Target resident time is on record as above 333 min.

`CSCc1cc2cc(c1)OCCCOc1cc(F)ccc1-c1nc(ncc1F)N2` [Example 2, 15,19-Difluoro-8-[(methylsulfanyl)methyl]-3,4-dihydro-2H,11H-12,16-(azeno)-10,6-(metheno)-1,5,11,13-benzodioxadiazacyclooctadecine]: the IC50 in the experiment on B16F10 cells amounted to 167 nM.

As for `CSCc1cc2nc(c1)OCCOc1cc(F)ccc1-c1cc(ncc1F)N2` [Example 9, 14,18-Difluoro-7-[(methylsulfanyl)methyl]-2,3-dihydro-10H-9,5-(azeno)-11,15-(metheno)-1,4,10,12-benzodioxadiazacycloheptadecine], in experiment [1], the dissociation rate constant (koff) worked out at 0.00024 s⁻¹ and the Target resident time is 69.4 min.
